The target of experiment [1] is T1, PfGRP78-NBD wt (Plasmodium falciparum, UniProt Q05866).
T1 construct: His-tag (pET28-MHL, TEV site) (N, cleaved yes); made in house; host or cells: E. coli BL21(DE3)
As to the kind of experiment: biochemical. It counts as binding. Here is the method:
To quantify the binding affinities of PfGRP78-NBD for the selected compounds, dissociation constants (Kd) were determined by surface plasmon resonance (SPR). […] Purified PfGRP78-FL, PfGRP78-NBD wild-type and mutant, and human GRP78-NBD were immobilized on a CM5 sensorchip using NHS/EDC coupling following the manufacturer protocol to a level of <10,000 RUs, a reference surfaces without immobilized proteins served as a control for nonspecific binding and refractive index changes. […] The running buffer was 10 mM HEPES, pH 7.4, 150 mM NaCl, 0.005% P20, 1% DMSO and 2 mM MgCl2. Buffer only injections were used as blanks. The Biacore responses recorded during the 30 seconds of the injection were used to estimate the association constant (kon) and the 300 seconds after the injection were used to estimate the dissociation constant (koff). All dissociation and kinetic constants were estimated using double subtracted sensorgrams[40] using BiaEvaluation Software (GE Healthcare). All the reported parasite dissociation constants (Kd) were estimated with affinity analysis, and all the reported human Kds were calculated from kinetic constants.

In experiment [2] the test system is HCT-116. As to the kind of experiment: Growth inhibition of human cell line. It counts as cell-based. Here is the method:
Growth inhibition experiments were conducted at least three times per compound. […] The statistical analysis was performed with the software Prism 7 (GraphPad Software, San Diego, CA).

Experiment [3] has as its target T2, PfGRP78-NBD (Plasmodium falciparum, UniProt Q05866).
T2 construct: His-tag (pET28-MHL, TEV site) (N, cleaved yes); made in house; host or cells: E. coli BL21(DE3)
The experiment can be described thus: DSF thermal shift, PfGRP78-NBD. Type of experiment: binding. The following applies: compound 0.5 mM; shifts above or below 1 °C significant. The protocol:
The Plasmodium and human GRP78 NBD differences were further characterized by measuring their interaction with ATP, ADP, and several compounds referenced in the literature as GRP78 inhibitors (Fig. 3a). Initially, their binding was determined using a DSF (Differential Scanning Fluorimetry) assay. In this assay, an interaction between the chaperone and a compound was measured as a change in the protein’s melting temperature (Tm), by subtracting the Tm of the protein by itself to the melting value of the protein in the presence of the compound. Differences above or below 1 °C between the melting temperatures (ΔTm) were considered indicative of a protein-compound interaction. As expected, the Plasmodium GRP78 chaperone interacted with both ATP and ADP. Four of the six compounds tested had significant effects on protein thermal stability (Fig. 3b).
DSF screening was carried out using a CFX96 Touch Real-Time PCR Detection System (BioRad, California). The PfGRP78-FL, PfGRP78-NBD wild type and mutant, and human GRP78-NBD were buffered in 25 mM hepes pH 7.5, 250 mM NaCl and assayed in a 96-well format. […]. The concentration was optimized for each protein to avoid saturation of the fluorescence detector. The GRP78 inhibitors were used at a final concentration of 0.5 mM. SYPRO Orange (Life Technologies, USA) was added as a fluorescence probe in a dilution of 1:1000. The experiments were conducted between 18 °C to 90 °C at a heating rate of 1 °C per minute. The recorded fluorescence reads were fitted to the Boltzmann sigmoid function using DMAN software. The inflection point of each fitted curve is defined as the melting temperature (Tm). The observed temperature shift, ΔTm, was recorded as the difference between Tm of the protein with ligand minus Tm of the protein without ligand. Thermal shifts above or below 1 °C were considered significant.

Experiment [4] addresses T3, PfGRP78-NBD Y39F (Plasmodium falciparum, UniProt Q05866, Y39F).
T3 construct: His-tag (pET28-MHL, TEV site) (N, cleaved yes); made in house; host or cells: E. coli BL21(DE3)
The experiment can be described thus: DSF thermal shift, PfGRP78-NBD Y39F mutant. Type of experiment: binding. The protocol:
Initially, their binding was determined using a DSF (Differential Scanning Fluorimetry) assay. In this assay, an interaction between the chaperone and a compound was measured as a change in the protein’s melting temperature (Tm), by subtracting the Tm of the protein by itself to the melting value of the protein in the presence of the compound. Differences above or below 1 °C between the melting temperatures (ΔTm) were considered indicative of a protein-compound interaction.
DSF screening was carried out using a CFX96 Touch Real-Time PCR Detection System (BioRad, California). The PfGRP78-FL, PfGRP78-NBD wild type and mutant, and human GRP78-NBD were buffered in 25 mM hepes pH 7.5, 250 mM NaCl and assayed in a 96-well format. The final concentration of the protein sample was optimized between 0.05 and 0.2 mg/ml for each protein. The concentration was optimized for each protein to avoid saturation of the fluorescence detector. The GRP78 inhibitors were used at a final concentration of 0.5 mM. SYPRO Orange (Life Technologies, USA) was added as a fluorescence probe in a dilution of 1:1000.

This note sets out measurements from paper PMC6037779, “Repurposing drugs to target the malaria parasite unfolding protein response” (Scientific Reports, 2018).

T3 sequence (Q05866 26-404 Y39F): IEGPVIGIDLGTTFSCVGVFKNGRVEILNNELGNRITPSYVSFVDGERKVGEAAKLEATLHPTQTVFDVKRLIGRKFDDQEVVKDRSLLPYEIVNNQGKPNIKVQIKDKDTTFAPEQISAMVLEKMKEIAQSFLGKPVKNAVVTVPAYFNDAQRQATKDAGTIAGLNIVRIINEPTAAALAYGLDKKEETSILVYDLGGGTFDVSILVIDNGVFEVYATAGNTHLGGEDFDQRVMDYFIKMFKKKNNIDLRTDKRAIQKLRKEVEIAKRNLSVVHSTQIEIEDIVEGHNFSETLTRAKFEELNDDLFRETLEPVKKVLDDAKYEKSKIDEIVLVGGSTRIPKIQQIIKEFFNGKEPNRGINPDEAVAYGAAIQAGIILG
T1 sequence (Q05866 26-404): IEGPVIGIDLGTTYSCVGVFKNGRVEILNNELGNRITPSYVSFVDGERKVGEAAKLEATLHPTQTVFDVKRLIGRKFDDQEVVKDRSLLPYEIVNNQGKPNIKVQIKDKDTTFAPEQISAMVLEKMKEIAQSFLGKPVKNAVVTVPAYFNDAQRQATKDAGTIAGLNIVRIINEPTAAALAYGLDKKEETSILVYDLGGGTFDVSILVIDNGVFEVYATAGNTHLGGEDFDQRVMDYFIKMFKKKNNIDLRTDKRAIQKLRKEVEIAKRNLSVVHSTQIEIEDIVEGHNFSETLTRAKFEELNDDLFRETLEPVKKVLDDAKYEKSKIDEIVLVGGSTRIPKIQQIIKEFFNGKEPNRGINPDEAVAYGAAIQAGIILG
T2 sequence (Q05866 26-404): as above

For `COc1ccc(-c2nc(-c3cc(C(F)(F)F)cc(C(F)(F)F)c3)n(Cc3ccc(C(N)=O)cc3)c2-c2ccc(OC)cc2)cc1` [Apoptozole], in experiment [1], the Kd (as a rule, the free concentration of one partner at which half of the binding sites on the other are occupied at equilibrium, for simple one-to-one binding) was found to be 4.27 ± 0.86 µM. The EC50 (usually the concentration needed to bring the measured effect to its halfway point) in experiment [2] (HCT-116, human cell line, average of three ± SD, read-out: EC50, growth inhibition, HCT-116) worked out at 16.5 ± 12.8 µM. The “times more selective towards P. falciparum” value in experiment [2] (HCT-116 vs P. falciparum EC50, Results text b30) came to 2.9 times. The “DSF effect on thermal stability of PfGRP78-NBD” value in experiment [3] is reported as “increased the thermal stability”. The “DSF binding to PfGRP78-NBD Y39F” value in experiment [4] is on record as “failed to bind”.
